Laboratory results: ChEMBL document CHEMBL1156456, “Insights into the mechanism of partial agonism: crystal structures of the peroxisome proliferator-activated receptor gamma ligand-binding domain in the complex with two enantiomeric ligands” (J Biol Chem, 2007)

Experiments:
[1] = Activation of PPARgamma L465A mutant-mediated transcriptional activity assessed as Gal4 reporter activity
[2] = Activation of PPARgamma L469A mutant-mediated transcriptional activity assessed as Gal4 reporter activity
[3] = Activation of PPARgamma I472A mutant-mediated transcriptional activity assessed as Gal4 reporter activity
[4] = Activation of PPARgamma Q286G mutant-mediated transcriptional activity assessed as Gal4 reporter activity

SMILES: CN(CCOc1ccc(CC2SC(=O)NC2=O)cc1)c1ccccn1 (centres undefined) [ROSIGLITAZONE]
- EC50 [1]: > 10 µM
- EC50 [2]: > 10 µM
- EC50 [3]: > 10 µM
- EC50 [4]: 0.207 µM
